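In this assay, cells in 96-well plates receive the compound at five concentrations for 48 hours. Endpoints are linearly interpolated between the surrounding concentrations. GI50: concentration for 50% inhibition of growth.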 The source made the active and inactive calls. Rule as the data show it: active = GI50 up to about 1.1 µM and inactive = higher.
Columns and labels:
Assay in all cases: DTP human tumour cell line panel, 48 h
SF-539 = tested on: SF-539
HOP-62 = tested on: HOP-62
A498 = tested on: A498
SF-268 = tested on: SF-268
KM-20L2 = tested on: KM-20L2
SF-295 = tested on: SF-295
SK-MEL-5 = tested on: SK-MEL-5
UACC-62 = tested on: UACC-62
SNB-19 = tested on: SNB-19
HCT-116 = tested on: HCT-116
HT-29 = tested on: HT-29
KM12 = tested on: KM12
SK-OV-3 = tested on: SK-OV-3
K562 = tested on: K562
M14 = tested on: M14
SNB-78 = tested on: SNB-78
SK-MEL-28 = tested on: SK-MEL-28
LOX IMVI = tested on: LOX IMVI
SN12C = tested on: SN12C
HOP-18 = tested on: HOP-18
NCI-H460 = tested on: NCI-H460
SK-MEL-2 = tested on: SK-MEL-2
Malme-3M = tested on: Malme-3M
EKVX = tested on: EKVX
COLO 205 = tested on: COLO 205
CAKI-1 = tested on: CAKI-1
SNB-75 = tested on: SNB-75
UACC-257 = tested on: UACC-257
RXF 631 = tested on: RXF 631
SW-620 = tested on: SW-620
CCRF-CEM = tested on: CCRF-CEM
M19-MEL = tested on: M19-MEL
NCI-H226 = tested on: NCI-H226
OVCAR-4 = tested on: OVCAR-4
U-251 = tested on: U-251
NCI-H23 = tested on: NCI-H23
HCC 2998 = tested on: HCC 2998
ACHN = tested on: ACHN
DMS-114 = tested on: DMS-114
DMS-273 = tested on: DMS-273
OVCAR-8 = tested on: OVCAR-8
TK-10 = tested on: TK-10
IGROV-1 = tested on: IGROV-1
A549 = tested on: A549
RPMI-8226 = tested on: RPMI-8226
OVCAR-3 = tested on: OVCAR-3
786-0 = tested on: 786-0
HCT-15 = tested on: HCT-15
OVCAR-5 = tested on: OVCAR-5
DLD-1 = tested on: DLD-1
UO-31 = tested on: UO-31
MOLT-4 = tested on: MOLT-4
HOP-92 = tested on: HOP-92
LXFL 529 = tested on: LXFL 529
NCI-H522 = tested on: NCI-H522
RXF 393 = tested on: RXF 393
HL-60 = tested on: HL-60

In the case of `Cc1ccc(C(O)(c2ccc(C)cc2)c2ccccn2)cc1`, the GI50 (SF-539) is reported as > 100 µM (inactive), the GI50 (HOP-62) is reported as > 100 µM (inactive) and the GI50 (A498) is reported as > 100 µM (inactive). The GI50 (SF-268) was > 100 µM (inactive), the GI50 (KM-20L2) was > 100 µM (inactive) and the GI50 (SF-295) was > 100 µM (inactive). The GI50 (SK-MEL-5) was > 100 µM (inactive), the GI50 (UACC-62) was > 100 µM (inactive) and the GI50 (SNB-19) was > 100 µM (inactive). For the same compound, the GI50 (HCT-116) was 68.9 µM (inactive), the GI50 (HT-29) was 80.7 µM (inactive) and the GI50 (KM12) was > 10 µM (inactive). The GI50 (SK-OV-3) was > 100 µM (inactive), the GI50 (K562) was 71.6 µM (inactive) and the GI50 (M14) was > 100 µM (inactive). For the same compound, the GI50 (SNB-78) was > 100 µM (inactive), the GI50 (SK-MEL-28) was > 100 µM (inactive) and the GI50 (LOX IMVI) was > 100 µM (inactive). For the same compound, the GI50 (SN12C) was > 100 µM (inactive), the GI50 (HOP-18) was > 100 µM (inactive) and the GI50 (NCI-H460) was > 100 µM (inactive). For the same compound, the GI50 (SK-MEL-2) was > 100 µM (inactive), the GI50 (Malme-3M) was > 100 µM (inactive) and the GI50 (EKVX) was 86.7 µM (inactive). The GI50 (COLO 205) was > 100 µM (inactive), the GI50 (CAKI-1) was > 100 µM (inactive) and the GI50 (SNB-75) was 30.9 µM (inactive). The GI50 (UACC-257) was > 100 µM (inactive), the GI50 (RXF 631) was > 100 µM (inactive) and the GI50 (SW-620) was > 100 µM (inactive). The GI50 (CCRF-CEM) was 51.5 µM (inactive), the GI50 (M19-MEL) was > 100 µM (inactive) and the GI50 (NCI-H226) was > 100 µM (inactive). For the same compound, the GI50 (OVCAR-4) was > 100 µM (inactive), the GI50 (U-251) was > 100 µM (inactive) and the GI50 (NCI-H23) was 80.2 µM (inactive). The GI50 (HCC 2998) was > 100 µM (inactive), the GI50 (ACHN) was > 100 µM (inactive) and the GI50 (DMS-114) was > 100 µM (inactive). For the same compound, the GI50 (DMS-273) was > 100 µM (inactive), the GI50 (OVCAR-8) was > 100 µM (inactive) and the GI50 (TK-10) was 62.1 µM (inactive). The GI50 (IGROV-1) was > 100 µM (inactive), the GI50 (A549) was 64.6 µM (inactive) and the GI50 (RPMI-8226) was > 100 µM (inactive). For the same compound, the GI50 (OVCAR-3) was > 100 µM (inactive), the GI50 (786-0) was > 100 µM (inactive) and the GI50 (HCT-15) was > 100 µM. The GI50 (OVCAR-5) was > 100 µM (inactive), the GI50 (DLD-1) was > 100 µM (inactive) and the GI50 (UO-31) was 38.3 µM (inactive).
In the case of `O=C(Cc1nc2ccccc2c(=O)n1-c1ccccc1Cl)c1ccncc1`, the GI50 (SF-539) is reported as > 100 µM (inactive), the GI50 (MOLT-4) is reported as > 100 µM (inactive) and the GI50 (HOP-62) is reported as > 100 µM (inactive). The GI50 (A498) was > 100 µM (inactive), the GI50 (SF-268) was > 100 µM (inactive) and the GI50 (HOP-92) was > 100 µM (inactive). The GI50 (KM-20L2) was > 100 µM (inactive), the GI50 (SF-295) was > 100 µM (inactive) and the GI50 (SK-MEL-5) was > 100 µM (inactive). The GI50 (UACC-62) was > 100 µM (inactive), the GI50 (SNB-19) was > 100 µM (inactive) and the GI50 (HCT-116) was > 100 µM (inactive). For the same compound, the GI50 (HT-29) was > 100 µM (inactive), the GI50 (KM12) was > 100 µM (inactive) and the GI50 (SK-OV-3) was > 100 µM (inactive). For the same compound, the GI50 (K562) was > 100 µM (inactive), the GI50 (LXFL 529) was > 100 µM (inactive) and the GI50 (M14) was > 100 µM (inactive). For the same compound, the GI50 (SNB-78) was > 100 µM (inactive), the GI50 (SK-MEL-28) was > 100 µM (inactive) and the GI50 (NCI-H522) was > 100 µM (inactive). The GI50 (LOX IMVI) was > 100 µM (inactive), the GI50 (SN12C) was > 100 µM (inactive) and the GI50 (HOP-18) was > 100 µM (inactive). The GI50 (NCI-H460) was > 100 µM (inactive), the GI50 (SK-MEL-2) was > 100 µM (inactive) and the GI50 (RXF 393) was > 100 µM (inactive). The GI50 (Malme-3M) was > 100 µM (inactive), the GI50 (EKVX) was > 100 µM (inactive) and the GI50 (COLO 205) was > 100 µM (inactive). For the same compound, the GI50 (CAKI-1) was > 100 µM (inactive), the GI50 (SNB-75) was 15 µM (inactive) and the GI50 (UACC-257) was > 100 µM (inactive). For the same compound, the GI50 (HL-60) was 37.6 µM (inactive), the GI50 (RXF 631) was > 100 µM (inactive) and the GI50 (SW-620) was > 100 µM (inactive). For the same compound, the GI50 (CCRF-CEM) was > 100 µM (inactive), the GI50 (M19-MEL) was > 100 µM (inactive) and the GI50 (NCI-H226) was > 100 µM (inactive). The GI50 (OVCAR-4) was 68.2 µM (inactive), the GI50 (U-251) was > 100 µM (inactive) and the GI50 (NCI-H23) was > 100 µM (inactive). For the same compound, the GI50 (HCC 2998) was > 100 µM (inactive), the GI50 (ACHN) was > 100 µM (inactive) and the GI50 (DMS-114) was > 100 µM (inactive). For the same compound, the GI50 (DMS-273) was > 100 µM (inactive), the GI50 (OVCAR-8) was > 100 µM (inactive) and the GI50 (TK-10) was > 100 µM (inactive). For the same compound, the GI50 (IGROV-1) was > 100 µM (inactive), the GI50 (A549) was > 100 µM (inactive) and the GI50 (OVCAR-3) was > 100 µM (inactive). For the same compound, the GI50 (786-0) was > 100 µM (inactive), the GI50 (HCT-15) was > 100 µM and the GI50 (OVCAR-5) was > 100 µM (inactive). For the same compound, the GI50 (DLD-1) was > 100 µM (inactive) and the GI50 (UO-31) was > 100 µM (inactive).

Reference: ChEMBL document CHEMBL1201862, “PubChem BioAssay data set” (2004)
